Measurements from paper PMC6934184, “Selective DNA-PKcs inhibition extends the therapeutic index of localized radiotherapy and chemotherapy” (The Journal of Clinical Investigation, 2019).

Molecular target: T1, TEK (TIE2) R849W (Homo sapiens, UniProt Q02763, R849W)
T1 construct: purchased Thermo Fisher Scientific (Life Technologies) SelectScreen
Test: SelectScreen LanthaScreen
Format: binding
Settings: read-out: % displacement
Procedure, shortened: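 SelectScreen broad panel; activity (Z'LYTE, Adapta) plus binding formats. ATP: Km app for CSF1R Z'LYTE; 10 for CAMK1 Adapta. Readout = % per kinase.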

T1 sequence (Q02763 23-1124 R849W): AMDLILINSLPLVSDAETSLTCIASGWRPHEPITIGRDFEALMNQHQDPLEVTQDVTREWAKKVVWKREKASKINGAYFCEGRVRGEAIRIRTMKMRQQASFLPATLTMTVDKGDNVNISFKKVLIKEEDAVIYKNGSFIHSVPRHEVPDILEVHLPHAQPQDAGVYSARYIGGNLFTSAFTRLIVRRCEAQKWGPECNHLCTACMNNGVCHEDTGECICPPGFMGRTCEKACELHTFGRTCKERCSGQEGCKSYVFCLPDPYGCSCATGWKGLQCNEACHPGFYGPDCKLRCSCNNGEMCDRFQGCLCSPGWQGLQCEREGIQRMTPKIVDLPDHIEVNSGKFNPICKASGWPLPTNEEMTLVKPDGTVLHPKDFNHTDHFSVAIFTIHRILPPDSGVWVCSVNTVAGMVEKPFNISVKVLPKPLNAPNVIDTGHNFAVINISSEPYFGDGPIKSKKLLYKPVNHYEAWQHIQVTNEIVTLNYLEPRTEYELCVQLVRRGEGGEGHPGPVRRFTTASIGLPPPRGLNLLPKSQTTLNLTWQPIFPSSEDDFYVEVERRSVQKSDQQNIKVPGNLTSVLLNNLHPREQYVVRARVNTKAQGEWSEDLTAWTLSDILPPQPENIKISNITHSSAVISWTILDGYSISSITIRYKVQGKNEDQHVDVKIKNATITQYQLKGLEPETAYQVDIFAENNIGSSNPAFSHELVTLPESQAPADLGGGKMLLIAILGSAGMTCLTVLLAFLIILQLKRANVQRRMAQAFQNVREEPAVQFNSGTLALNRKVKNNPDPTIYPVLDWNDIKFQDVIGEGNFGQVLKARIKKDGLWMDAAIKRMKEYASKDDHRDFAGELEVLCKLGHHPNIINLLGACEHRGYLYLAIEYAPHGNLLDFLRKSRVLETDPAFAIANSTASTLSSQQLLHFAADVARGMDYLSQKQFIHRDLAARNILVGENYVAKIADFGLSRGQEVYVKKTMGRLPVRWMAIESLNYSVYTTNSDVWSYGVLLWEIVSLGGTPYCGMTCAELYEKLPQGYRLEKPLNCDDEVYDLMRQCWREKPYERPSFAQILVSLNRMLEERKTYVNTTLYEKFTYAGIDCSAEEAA

`CN(C(=O)CN1CCOCC1)c1ccc2sc3c(-c4cccc5c(=O)cc(N6CC7CCC(C6)O7)oc45)cccc3c2c1` [NU5455] was tested, and the inhibition at 1 µM was -3.3%.
